Test results from US8741944B2, “Anti-infective agents against intracellular pathogens” (priority 2007, dated 2014).
Values joined by “and” are separate entries in the source; they are usually repeats but may differ in a detail not shown here. Equal entries are not always repeated. Where two headings read alike, the source gives them in different places.

What was measured:
SK-MEL-2 (Melanoma) = experiment: NCI DTP tumor cell line screen (SRB), SK-MEL-2
Protocol: (§1) For a typical screening experiment, cells are inoculated into 96 well microtiter plates in 100 μL at plating densities ranging from 5,000 to 40,000 cells/well depending on the doubling time of individual cell lines. After cell inoculation, the microtiter plates are incubated at 37° C., 5% CO2, 95% air and 100% relative humidity for 24 h prior to addition of experimental drugs.
(§2) After 24 h, two plates of each cell line are fixed in situ with TCA, to represent a measurement of the cell population for each cell line at the time of drug addition (Tz). Experimental drugs are solubilized in dimethyl sulfoxide at 400-fold the desired final maximum test concentration and stored frozen prior to use. At the time of drug addition, an aliquot of frozen concentrate is thawed and diluted to twice the desired final maximum test concentration with complete medium containing 50 μg/ml gentamicin. Additional four, 10-fold or ½ log serial dilutions are made to provide a total of five drug concentrations plus control. Aliquots of 100 μl of these different drug dilutions are added to the appropriate microtiter wells already containing 100 μl of medium, resulting in the required final drug concentrations.
(§3) Following drug addition, the plates are incubated for an additional 48 h at 37° C., 5% CO2, 95% air, and 100% relative humidity. For adherent cells, the assay is terminated by the addition of cold TCA. Cells are fixed in situ by the gentle addition of 50 μl of cold 50% (w/v) TCA (final concentration, 10% TCA) and incubated for 60 minutes at 4° C. The supernatant is discarded, and the plates are washed five times with tap water and air dried. Sulforhodamine B (SRB) solution (1001) at 0.4% (w/v) in 1% acetic acid is added to each well, and plates are incubated for 10 minutes at room temperature. After staining, unbound dye is removed by washing five times with 1% acetic acid and the plates are air dried. Bound stain is subsequently solubilized with 10 mM trizma base, and the absorbance is read on an automated plate reader at a wavelength of 515 nm. For suspension cells, the methodology is the same except that the assay is terminated by fixing settled cells at the bottom of the wells by gently adding 50 μl of 80% TCA (final concentration, 16% TCA). Using the seven absorbance measurements [time zero, (Tz), control growth, (C), and test growth in the presence of drug at the five concentration levels (Ti)], the percentage growth is calculated at each of the drug concentrations levels. Percentage growth inhibition is calculated as: [(Ti−Tz)/(C−Tz)]×100 for concentrations for which Ti>/=Tz [(Ti−Tz)/Tz]×100 for concentrations for which Ti<Tz
(§4) Three dose response parameters are calculated for each experimental agent. […] The drug concentration resulting in total growth inhibition (TGI) is calculated from Ti=Tz. […] Values are calculated for each of these three parameters if the level of activity is reached; however, if the effect is not reached or is exceeded, the value for that parameter is expressed as greater or less than the maximum or minimum concentration tested.

[1] = tested on: MDA-MB-435 (Breast Cancer); experiment: NCI DTP tumor cell line screen (SRB), MDA-MB-435
Protocol: as §1, §2, §3, §4

LOX IMVI (Melanoma) = experiment: NCI DTP tumor cell line screen (SRB), LOX IMVI
Protocol: as §1, §2, §3, §4

OVCAR-3 (Ovarian Cancer) = experiment: NCI DTP tumor cell line screen (SRB), OVCAR-3
Protocol: as §1, §2, §3, §4

[2] = tested on: NCI/ADR-RES (Breast Cancer)
Protocol: as §1, §2, §3, §4

SK-OV-3 (Ovarian Cancer) = experiment: NCI DTP tumor cell line screen (SRB), SK-OV-3
Protocol: as §1, §2, §3, §4

M14 (Melanoma) = experiment: NCI DTP tumor cell line screen (SRB), M14
Protocol: as §1, §2, §3, §4

[3] = tested on: NCI-H522 (Non-Small Cell Lung Cancer)
Protocol: as §1, §2, §3, §4

[4] = tested on: NCI-H23 (Non-Small Cell Lung Cancer)
Protocol: as §1, §2, §3, §4

A498 (Renal Cancer) = experiment: NCI DTP tumor cell line screen (SRB), A498
Protocol: as §1, §2, §3, §4

SR (Leukemia) = experiment: NCI DTP tumor cell line screen (SRB), SR
Protocol: as §1, §2, §3, §4

HCT-15 (Colon Cancer) = experiment: NCI DTP tumor cell line screen (SRB), HCT-15
Protocol: as §1, §2, §3, §4

SN12C (Renal Cancer) = experiment: NCI DTP tumor cell line screen (SRB), SN12C
Protocol: as §1, §2, §3, §4

[5] = tested on: sixty human tumor cell lines; experiment: NCI DTP sixty human tumor cell line screen (SRB), means over the panel
PC-3 (Prostate Cancer) = experiment: NCI DTP tumor cell line screen (SRB), PC-3
Protocol: as §1, §2, §3, §4

SW-620 (Colon Cancer) = experiment: NCI DTP tumor cell line screen (SRB), SW-620
Protocol: as §1, §2, §3, §4

Substance: 4-[5-(2-Phenanthrenyl)-3-(trifluoromethyl)-1H-pyrazol-1-yl]-phenyl -guanidine [Compound 71]
- GI50 (SK-MEL-2 (Melanoma)): 1.57 µM
- TGI (SK-MEL-2 (Melanoma)): 2.91E−06
- Percent Growth (SK-MEL-2 (Melanoma); Log10 Concentration −4.0): −29%
- Percent Growth (SK-MEL-2 (Melanoma); Log10 Concentration −5.0): −100%
- Percent Growth (SK-MEL-2 (Melanoma); Log10 Concentration −7.0): 97%
- Percent Growth (SK-MEL-2 (Melanoma); Log10 Concentration −8.0): 85%
- GI50 [1]: 1.7 µM
- TGI [1]: 3.07E−06
- Percent Growth ([1]; Log10 Concentration −4.0): −27%
- Percent Growth ([1]; Log10 Concentration −5.0): −100%
- Percent Growth ([1]; Log10 Concentration −6.0): 95%
- GI50 (LOX IMVI (Melanoma)): 1.34 µM
- TGI (LOX IMVI (Melanoma)): 2.65E−06
- Percent Growth (LOX IMVI (Melanoma); Log10 Concentration −4.0): −53%
- Percent Growth (LOX IMVI (Melanoma); Log10 Concentration −5.0): −98%
- Percent Growth (LOX IMVI (Melanoma); Log10 Concentration −6.0): 72%
- Percent Growth (LOX IMVI (Melanoma); Log10 Concentration −8.0): 73%
- GI50 (OVCAR-3 (Ovarian Cancer)): 1.4 µM
- TGI (OVCAR-3 (Ovarian Cancer)): 2.70E−06
- Percent Growth (OVCAR-3 (Ovarian Cancer); Log10 Concentration −4.0): −72%
- Percent Growth (OVCAR-3 (Ovarian Cancer); Log10 Concentration −5.0): −100%
- Percent Growth (OVCAR-3 (Ovarian Cancer); Log10 Concentration −6.0): 76%
- Percent Growth (OVCAR-3 (Ovarian Cancer); Log10 Concentration −8.0): 91%
- GI50 [2]: 2.64 µM
- TGI [2]: 7.73E−06
- Percent Growth ([2]; Log10 Concentration −4.0): −47%
- Percent Growth ([2]; Log10 Concentration −6.0): 95%
- Percent Growth ([2]; Log10 Concentration −8.0): 98%
- GI50 (SK-OV-3 (Ovarian Cancer)): 1.43 µM
- TGI (SK-OV-3 (Ovarian Cancer)): 2.94E−06
- Percent Growth (SK-OV-3 (Ovarian Cancer); Log10 Concentration −4.0): −30%
- Percent Growth (SK-OV-3 (Ovarian Cancer); Log10 Concentration −5.0): −85%
- Percent Growth (SK-OV-3 (Ovarian Cancer); Log10 Concentration −6.0): 75%
- Percent Growth (SK-OV-3 (Ovarian Cancer); Log10 Concentration −7.0): 91%
- GI50 (M14 (Melanoma)): 1.48 µM
- TGI (M14 (Melanoma)): 2.80E−06
- Percent Growth (M14 (Melanoma); Log10 Concentration −4.0): −33%
- Percent Growth (M14 (Melanoma); Log10 Concentration −5.0): −100%
- Percent Growth (M14 (Melanoma); Log10 Concentration −7.0): 82%
- GI50 [3]: 1.45 µM
- TGI [3]: 2.82E−06
- Percent Growth ([3]; Log10 Concentration −4.0): −43%
- Percent Growth ([3]; Log10 Concentration −5.0): −95%
- Percent Growth ([3]; Log10 Concentration −6.0): 78%
- Percent Growth ([3]; Log10 Concentration −8.0): 82%
- GI50 [4]: 1.79 µM
- TGI [4]: 3.18E−06
- Percent Growth ([4]; Log10 Concentration −4.0): −67%
- Percent Growth ([4]; Log10 Concentration −5.0): −100%
- Percent Growth ([4]; Log10 Concentration −6.0): 101%
- GI50 (A498 (Renal Cancer)): 16.5 µM
- TGI (A498 (Renal Cancer)): 4.35E−05
- Percent Growth (A498 (Renal Cancer); Log10 Concentration −4.0): −43%
- Percent Growth (A498 (Renal Cancer); Log10 Concentration −5.0): 76%
- Percent Growth (A498 (Renal Cancer); Log10 Concentration −6.0): 73%
- Percent Growth (A498 (Renal Cancer); Log10 Concentration −7.0): 91%
- Percent Growth (A498 (Renal Cancer); Log10 Concentration −8.0): 116%
- GI50 (SR (Leukemia)): 0.0386 µM
- TGI (SR (Leukemia)): 3.79E−07
- Percent Growth (SR (Leukemia); Log10 Concentration −4.0): −21%
- Percent Growth (SR (Leukemia); Log10 Concentration −5.0): −36%
- Percent Growth (SR (Leukemia); Log10 Concentration −6.0): −30%
- Percent Growth (SR (Leukemia); Log10 Concentration −7.0): 42%
- Percent Growth (SR (Leukemia); Log10 Concentration −8.0): 62%
- GI50 (HCT-15 (Colon Cancer); HCT-15): 1.54 µM
- TGI (HCT-15 (Colon Cancer); HCT-15): 2.87E−06
- Percent Growth (HCT-15 (Colon Cancer); HCT-15, Log10 Concentration −4.0): −71%
- Percent Growth (HCT-15 (Colon Cancer); HCT-15, Log10 Concentration −5.0): −100%
- Percent Growth (HCT-15 (Colon Cancer); HCT-15, Log10 Concentration −8.0): 64%
- GI50 (SN12C (Renal Cancer)): 1.57 µM
- TGI (SN12C (Renal Cancer)): 2.91E−06
- Percent Growth (SN12C (Renal Cancer); Log10 Concentration −4.0): −62%
- Percent Growth (SN12C (Renal Cancer); Log10 Concentration −5.0): −100%
- Percent Growth (SN12C (Renal Cancer); Log10 Concentration −7.0): 78%
- concentration range completely suppressing cell growth in a diverse range of tumor cell lines [5]: 3 to 5 µM
- GI50 ([5]; read-out: mean GI50 among the sixty cell lines, two-day treatment): 1.2 µM and 1.3 µM
- CC50 ([5]; read-out: mean LC50 among the sixty cell lines, two-day treatment): 8.5 µM
- mean TGI among the sixty cell lines ([5]; two-day treatment): 2.9 µM
- GI50 (PC-3 (Prostate Cancer)): 1.38 µM
- TGI (PC-3 (Prostate Cancer)): 2.67E−06
- Percent Growth (PC-3 (Prostate Cancer); Log10 Concentration −5.0): −100%
- Percent Growth (PC-3 (Prostate Cancer); Log10 Concentration −6.0): 75%
- Percent Growth (PC-3 (Prostate Cancer); Log10 Concentration −7.0): 73%
- Percent Growth (PC-3 (Prostate Cancer); Log10 Concentration −8.0): 75%
- GI50 (SW-620 (Colon Cancer)): 1.75 µM
- TGI (SW-620 (Colon Cancer)): 3.13E−06
- Percent Growth (SW-620 (Colon Cancer); Log10 Concentration −4.0): −92%
- Percent Growth (SW-620 (Colon Cancer); Log10 Concentration −5.0): −100%
- Percent Growth (SW-620 (Colon Cancer); Log10 Concentration −6.0): 98%
- Percent Growth (SW-620 (Colon Cancer); Log10 Concentration −7.0): 91%
- Percent Growth (SW-620 (Colon Cancer); Log10 Concentration −8.0): 83%
